Measurements as given in ChEMBL document CHEMBL3421614, “Identification of novel aldose reductase inhibitors based on carboxymethylated mercaptotriazinoindole scaffold” (J Med Chem, 2015).

What was measured:
[1] = Inhibition of Wistar rat kidney aldehyde reductase using D-glucuronate as substrate at 100 uM by spectrophotometry
[2] = biological target: Aldo-keto reductase family 1 member B1 (Rattus norvegicus, UniProt P07943); assay: Inhibition of Wistar rat lens aldose reductase using D,L-glyceraldehyde as substrate incubated for 1 min measured for 4 mins by spectrophotometry
[3] = biological target: Aldo-keto reductase family 1 member B10 (Homo sapiens, UniProt O60218); assay: Inhibition of human AKR1B10 using D-glucuronate as substrate by spectrophotometry
[4] = Octanol-phosphate buffer partition coefficient, log D of the compound at 100 uM at pH 7.4 at RT after 1 hr by shake flask method; format: physicochemical
[5] = biological target: Aldo-keto reductase family 1 member B1 (Rattus norvegicus) (UniProt P07943); assay: Inhibition of Wistar rat lens aldose reductase using D,L-glyceraldehyde as substrate at 100 uM incubated for 1 min measured for 4 mins by spectrophotometry
[6] = Inhibition of Wistar rat kidney aldehyde reductase using D-glucuronate as substrate at 10 uM by spectrophotometry
[7] = biological target: Aldo-keto reductase family 1 member B1 (Rattus norvegicus) (UniProt P07943); assay: Inhibition of Wistar rat lens aldose reductase using D,L-glyceraldehyde as substrate at 10 uM incubated for 1 min measured for 4 mins by spectrophotometry

Sequence of Aldo-keto reductase family 1 member B10 (O60218 whole entry): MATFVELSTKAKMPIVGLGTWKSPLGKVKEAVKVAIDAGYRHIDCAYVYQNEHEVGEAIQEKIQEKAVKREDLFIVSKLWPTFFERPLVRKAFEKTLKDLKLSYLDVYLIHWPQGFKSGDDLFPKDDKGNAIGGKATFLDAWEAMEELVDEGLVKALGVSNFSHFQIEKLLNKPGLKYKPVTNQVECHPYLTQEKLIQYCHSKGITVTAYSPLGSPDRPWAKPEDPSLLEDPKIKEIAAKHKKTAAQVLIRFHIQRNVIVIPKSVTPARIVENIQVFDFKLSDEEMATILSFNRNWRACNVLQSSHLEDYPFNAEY

inhibition [1] [%]	IC50 ([2]; read-out: IC50) [µM]	Structure (SMILES)	further results
49	11.5	O=C(O)Cn1c2ccccc2c2cn[nH]c(=O)c21	–
6.65	–	CCN(CC)Cc1cn(CCC(=O)O)c2ccccc12	inhibition [5]: 19.9%
–	2.05	CC(C)Sc1nnc2c3ccccc3n(CC(=O)O)c2n1	–
–	7.3	O=C(O)Cn1ccc2ccccc21	–
–	4.06	Cc1cc(C)c(NC(=O)CSc2nnc3c4ccccc4n(CC(=O)O)c3n2)c(C)c1	inhibition [6]: 23.5%
38	30.1	CCN(CC)Cc1cn(CC(=O)O)c2ccccc12	–
–	2.75	O=C(O)Cn1c2ccccc2c2nc3ccccc3nc21	–
19.2	46.5	O=C(O)Cn1cc(N2CCCC2)c2ccccc21	–
–	13.8	CC(C)(C)C(=O)c1cn(CC(=O)O)c2ccccc12	–
22.3	42.2	Cc1c(CN(C)C)c2ccccc2n1CC(=O)O	–
–	2.87	O=C(O)Cn1c2c(c3ccccc31)CCC2	–

Continued, compound first:

Structure (SMILES)	inhibition [1] [%]	IC50 ([2]; read-out: IC50) [µM]	further results
O=C(O)Cn1c2ccccc2c2nnc(S)nc21	–	–	IC50 [3]: 21.4 µM; logD at 1 h, 100 µM [4]: -1.9
Sc1nnc2c(n1)[nH]c1ccccc12	–	–	inhibition [5]: 4.41%
O=C(O)Cn1c2ccccc2c2nnc(Sc3ccccc3F)nc21	–	2.24	IC50 ([2]; read-out: pIC50 (converted)): 2.19 µM; inhibition [6]: 1.18%
CCCNC(=O)CSc1nnc2c3cc(C)ccc3n(CC(=O)O)c2n1	–	0.33	–
O=C(O)Cn1cc(N2CCOCC2)c2ccccc21	32.5	34.5	–
O=C(O)Cn1cc(Cc2nc3c(F)c(F)cc(F)c3s2)c2ccccc21 [LIDORESTAT]	–	0.005	–
O=C(O)CSc1nnc2c(n1)[nH]c1ccccc12	–	–	inhibition [7]: 3.46%
O=C(O)CCn1ccc2ccccc21	11.8	–	inhibition [5]: 53.5%
O=C(O)Cn1c2ccccc2c2nn3c(nc4ccccc43)nc21	–	9.95	inhibition [6]: 15.1%
